tested on: not given; test: not given; conditions: not given

melting point [°C]	Structure (SMILES)
237 to 238	COc1ccc(C(=O)Nc2ccc3c(c2)CCC3=O)cc1
203 to 204	COc1cccc(C(=O)Nc2ccc3c(c2)CCC3=O)c1
171 to 174	COc1ccc(C(=O)Nc2ccc(C(=O)c3ccccc3)cc2)cc1
168 to 170	CCCc1ccc(C(=O)Nc2ccc3c(c2)CCCC3=O)cc1
109 to 111	COc1ccc(C(=O)NCCc2cccs2)cc1
152 to 154	COc1cccc(C(=O)Nc2ccc(C(C)=O)cc2)c1
226 to 228	O=C(Nc1ccc2c(c1)CCCC2=O)c1cc(Cl)cc(Cl)c1
163 to 166	COc1ccc(C(=O)Nc2ccc3c(c2)CCCC3=O)cc1
100 to 102	O=C(NCCc1cccs1)c1cc(Cl)cc(Cl)c1
214 to 218	CCCc1ccc(C(=O)Nc2ccc3c(c2)nc(C)n3C)cc1
227 to 229	Cc1nc2c(Cl)c(NC(=O)Cc3ccc(Cl)cc3)ccc2s1
177 to 179	COc1cccc(C(=O)Nc2ccc3sc(C)nc3c2Cl)c1
184	CCCc1ccc(C(=O)Nc2ccc3sc(C)nc3c2Cl)cc1
222 to 223	COc1ccc(C(=O)Nc2ccc(C(C)=O)cc2)cc1
181 to 184	CCCc1ccc(C(=O)Nc2ccc3c(c2)CCC3=O)cc1
212 to 213	O=C(Nc1ccc(C(=O)c2ccccc2)cc1)c1ccc(-c2ccccc2)cc1
182	COc1ccc(C(=O)Nc2ccc3sc(C)nc3c2Cl)cc1
217 to 219	O=C(Nc1ccc2c(c1)CCC2=O)c1ccc(-c2ccccc2)cc1
97 to 99	CCCc1ccc(C(=O)NCCc2cccs2)cc1
99 to 100	O=C(NCCc1cccs1)c1cc(Cl)ccc1Cl
257 to 258	Cc1nc2c(Cl)c(NC(=O)Cc3ccc(Cl)cc3Cl)ccc2s1

Structure (SMILES)	melting point [°C]
CCCc1ccc(S(=O)(=O)NCc2ccccn2)cc1	109
CCCc1ccc(C(=O)Nc2ccc3sc(C)nc3c2)cc1	148 to 149
CCCc1ccc(S(=O)(=O)Nc2ccc(OC)nc2)cc1	93 to 94
Cc1nc2cc(NC(=O)c3cc(Cl)cc(Cl)c3)ccc2s1	194
COC(=O)c1cc2cc(NS(=O)(=O)c3cccc(Cl)c3C)ccc2o1	168 to 168.4

biological target: T1, Human 11β HSD1 (Homo sapiens, UniProt P28845); test: biochemical; type: biochemical; conditions: 350 nM cortisone, 0.3% DMSO, RIA buffer (Buffer 3) (FIG. 23)
T1 construct: human hepatic microsomes were obtained from XenoTech, product H0610/Lot 0210078; tissue XenoTech H0610/Lot 0210078; host or cells: human liver (hepatic microsomes)
Protocol: Standard Operating Procedure for the 11β-Hydroxysteroid Dehydrogenase Type 1 cortisol Radioimmunoassay (11β HSD1 Cortisol RIA).
30 mM Tris-HCL, pH 7.2 containing 1 mM EDTA.
50 mM Tris-HCL, pH 8, containing 0.1 M NaCl and 0.1% gelatin.
Prepare 10 mM stock solutions in 100% DMSO at 100 times the required assay concentration. Dilute into assay buffer 1 in 25. Also dilute neat DMSO 1 in 25 into assay buffer for controls.
Dilute this 1 in 50 into assay buffer.
Prepare NADPH as a 1.8 mg/ml solution in assay buffer.
Mix these 3solutions 1:1:1 to make a solution of sufficient volume for 25 μl additions to each sample. Add 0.5 μCi tritiated cortisone per 25 μl and mix the solution well.
Dilute stock 20 mg/ml solution 1 in 100 with assay buffer.
Dilute stock antibody solution to 17 μg/ml in antibody binding buffer.
Make a 20 mg/ml solution in antibody binding buffer and chill on ice.
To a u-bottom polypropylene 96 well plate add: • 25 μl compound dilution or diluted DMSO to controls, NSB's and blanks • 10 μl 1 mM GA in DMSO (enzyme stop solution) to blanks • 25 μl substrate mixture to all samples • 50 μl diluted microsomes to all samples • Incubate plate for 30 min at 37° C. shaking p0 Add 10 μl enzyme stop solution to all wells except the blanks • Add 100 μl antibody solution to all wells except the NSB's, add antibody binding buffer to these wells • Incubate at 37° C. for 1 h • Chill plate on ice for 15 min • Add 50 μl/well charcoal solution and mix with an 8-channel pipette (4-5 aspirations) • Chill the plate on ice • Centrifuge at 4° C., 2000×g for 15 min • Transfer 100 μl supernatant into an Optiplate, also add 25 μl substrate mixture to 2 empty wells to indicate counting efficiency • Add 200 μl Microscint-40 to all wells and count on a Topcount Radioimmunoassay
The 11β HSD1 enzyme assay was carried out following the standard operating procedure described above in u-bottom polypropylene 96 well plates or 1.5 ml Eppendorf tubes as indicated for each experiment. Subsequent to stopping the enzyme reaction, 100 μl antibody prepared in buffer 3 unless otherwise indicated was added to test samples and 100 μl buffer 3 was added to the NSB samples. The samples were incubated for 1 hour at 37° C. and the chilled on ice for 15 mins. Dextran coated charcoal (50 μl/sample) prepared to the indicated concentration in buffer 3 was added and the samples were mixed (vortex for tubes and aspiration 5 times with an 8-channel pipette for 96 well plates) and chilled for a further 10 min. The samples were centrifuged at 2000×g for 15 min at 4° C. to pellet the charcoal. Aliquots of the supernatant (100 μl) were transferred to an Optiplate and counted on the Topcount in 150-200 μl Microscint 40. In some experiments, aliquots of supernatant were transferred to scintillation vials and counted on the Tricarb LSC in 5 ml Ultima Gold scintillant.

T1 sequence (P28845 whole entry): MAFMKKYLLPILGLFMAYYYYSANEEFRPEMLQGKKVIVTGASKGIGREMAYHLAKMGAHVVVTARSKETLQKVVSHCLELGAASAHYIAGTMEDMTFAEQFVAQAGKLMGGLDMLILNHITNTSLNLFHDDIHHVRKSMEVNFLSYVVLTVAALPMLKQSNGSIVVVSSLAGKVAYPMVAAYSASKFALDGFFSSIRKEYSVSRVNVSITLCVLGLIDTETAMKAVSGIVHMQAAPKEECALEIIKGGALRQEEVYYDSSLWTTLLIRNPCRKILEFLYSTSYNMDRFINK

Structure (SMILES)	times more active than is suggested by Barf et al. [14]
CC1(C)[C@@H](OC(=O)CCC(=O)O)CC[C@]2(C)[C@H]3C(=O)C=C4[C@@H]5C[C@@](C)(C(=O)O)CC[C@]5(C)CC[C@@]4(C)[C@]3(C)CC[C@@H]12 [carbenoxolone, Carbenoxolone, reference compound]	about 5 times

same assay, conditions: read-out: % inhibition of Human 11β HSD1 @10 μM typical sd ± 5% N = 2

Structure (SMILES)	inhibition at 10 µM [%]
CC(=O)Nc1ccc(S(=O)(=O)NNC(=O)CSc2ncnc3c(C)csc23)cc1 [compound 557]	51.3
COc1cccc(NC(=O)Nc2ccc(S(=O)(=O)Nc3cc(C)on3)cc2)c1 [compound 556]	46.2
COc1ccc(S(=O)(=O)Nc2ccc(S(=O)(=O)NCCO)cc2)cc1OC [compound 649]	26.3
Cc1cc(NS(=O)(=O)c2cc(Cl)ccc2Cl)no1 [compound 823]	42.9
CCCc1ccc(S(=O)(=O)Nc2ccc3nc(C)ccc3c2)cc1 [compound 936]	42.3
CCCc1ccc(S(=O)(=O)Nc2ccc(OC)nc2)cc1 [compound 577]	54.6
CCCc1ccc(C(=O)Nc2ccc3sc(C)nc3c2)cc1 [compound 471]	53.7
COC(=O)c1cc2cc(NS(=O)(=O)c3cccc(Cl)c3C)ccc2s1 [compound 971]	49.6
CCCc1ccc(S(=O)(=O)Nc2ccc3nc(C)cnc3c2)cc1 [compound 956]	64.8
Cc1ccc2cc(NS(=O)(=O)c3cccc(Cl)c3C)ccc2n1 [compound 935]	20.7
Cc1c(Cl)cccc1S(=O)(=O)Nc1ccc2c(c1)-c1ccccc1C2=O [compound 1033]	62.6
Cc1cc(NS(=O)(=O)c2ccc(N)c(Cl)c2)no1 [compound 654]	32.1
COc1cc(C)c(S(=O)(=O)Nc2ccc(S(=O)(=O)NCCOS(=O)(=O)c3c(C)cc(OC)c(C)c3C)cc2)c(C)c1C [compound 652]	31.8
COc1ccc(S(=O)(=O)Nc2ccc(S(=O)(=O)Nc3cc(C)on3)cc2)cc1 [compound 555]	53
Cc1nc2cc(NC(=O)c3cc(Cl)cc(Cl)c3)ccc2s1 [compound 520]	43.5
COc1ccc(S(=O)(=O)Nc2ccc(S(=O)(=O)NCCOS(=O)(=O)c3ccc(OC)cc3)cc2)cc1 [compound 647]	34.5
CCCc1ccc(S(=O)(=O)NCc2ccccn2)cc1 [compound 702]	37.6
COc1ccc(S(=O)(=O)Nc2ccc(S(=O)(=O)Nc3nc(C)cc(C)n3)cc2)cc1OC [compound 558]	31.2
Cc1c(Cl)cccc1S(=O)(=O)Nc1ccc2c(c1)C(=O)N(C)C2=O [compound 979]	54.1
CCCc1ccc(S(=O)(=O)Nc2ccc3nccnc3c2)cc1 [compound 958]	58.1
Cc1c(Cl)cccc1S(=O)(=O)Nc1ccc2c(c1)OCCO2 [compound 990]	73.3

Structure (SMILES)	inhibition at 10 µM [%]
Cc1noc2ccc(NS(=O)(=O)c3cc(Cl)ccc3Cl)cc12 [compound 876]	23.6
Cc1c(Cl)cccc1S(=O)(=O)Nc1ccc2c(C)cc(=O)oc2c1 [compound 980]	61.2
COC(=O)c1cc2cc(NS(=O)(=O)c3cccc(Cl)c3C)ccc2o1 [compound 973]	33.1
Cc1cnc2cc(NS(=O)(=O)c3cccc(Cl)c3C)ccc2n1 [compound 955]	60.8
Cc1c(Cl)cccc1S(=O)(=O)Nc1ccc2scc(C)c2c1 [compound 1015]	64.6
CCCc1ccc(C(=O)N(C)c2ccc3sc(C)nc3c2)cc1 [compound 472]	71.4
Cc1cc(NS(=O)(=O)c2cccc(Cl)c2C)no1 [compound 825]	23.2
CCCc1ccc(S(=O)(=O)Nc2ccc3oncc3c2)cc1 [compound 919]	25.4
Cc1cc2cc(NS(=O)(=O)c3cccc(Cl)c3C)ccc2o1 [compound 1038]	28.7
Cc1c(Cl)cccc1S(=O)(=O)Nc1ccc2nccnc2c1 [compound 957]	55.5
Cc1c(Cl)cccc1S(=O)(=O)Nc1ccc2c(cnn2C)c1 [compound 988]	56
Cc1ccc2cc(NS(=O)(=O)c3cc(Cl)ccc3Cl)ccc2n1 [compound 937]	36.6
CC(=O)Nc1ccc(S(=O)(=O)Nc2cc(C)on2)cc1Cl [compound 645]	42
O=S(=O)(Nc1ccc2oncc2c1)c1cc(Cl)ccc1Cl [compound 920]	27.5
Cc1c(Cl)cccc1S(=O)(=O)Nc1ccc2occ(C)c2c1 [compound 972]	59.2
CC(=O)Nc1nsc2ccc(NS(=O)(=O)c3cccc(Cl)c3C)cc12 [compound 929]	31
O=S(=O)(NCCO)c1ccc(NS(=O)(=O)c2ccc(Cl)cc2Cl)cc1 [compound 653]	36.4
Cc1cc(NS(=O)(=O)c2ccc(NS(=O)(=O)c3ccc(Cl)cc3Cl)cc2)no1 [compound 644]	37.1
COc1ccc(S(=O)(=O)Nc2ccc(S(=O)(=O)NCCO)cc2)cc1 [compound 646]	48.5
Cc1nc2cc(CSc3cc(Cl)ccc3Cl)ccc2s1 [compound 1031]	45.6
Cc1c(Cl)cccc1S(=O)(=O)Nc1ccc2[nH]ncc2c1 [compound 983]	41.9

same assay, conditions: read-out: % inhibition of Human 11β HSD1 @10 μM typical sd ± 5% N = 2; compound 10 μM; human hepatic microsomes; cortisone 175 nM; typical sd ± 5%, N = 2

Structure (SMILES)	inhibition at 10 µM [%]
CCCc1ccc(S(=O)(=O)N(CC2CCNCC2)S(=O)(=O)c2ccc(CCC)cc2)cc1 [compound 576]	47.7
CC(=O)Nc1ccc(S(=O)(=O)Nc2cc(C)on2)cc1 [compound 606]	22.1
